# Values quoted from earlier work as cited in PubChem BioAssay AID1259409 (Chemical Carcinogenesis Research Information System (CCRIS), 2018).
# Tested on: rodent chemically induced tumor inhibition, incidence and multiplicity
# Assay: CCRIS tumor inhibitor studies
smiles,measurement,setting,value
O=P(O)(O)OC1C(OP(=O)(O)O)C(OP(=O)(O)O)C(OP(=O)(O)O)C(OP(=O)(O)O)C1OP(=O)(O)O (stereo not given),"tumour outcome (control, treated, inhibition, significance)","Carcinogen: 2,2'-DIHYDROXY-DI-N-PROPYLNITROSAMINE, 53609-64-6, N-ETHYL-N-HYDROXYETHYLNITROSAMINE, 13147-25-6, 3,2'-DIMETHYL-4-AMINO-, Carcinogen: 2,2'-DIHYDROXY-DI-N-PROPYLNITROSAMINE, 53609-64-6, N-ETHYL-N-HYDROXYETHYLNITROSAMINE, 13147-25-6, 3,2'-DIMETHYL-4-AMINO-, Dose [Inhibitor]: 0, 2% IN DIET FOR 32 WK BEGINNING 1 WK POST CARCINOGEN TREATMENT (STUDY DURATION: 36 WK), Route [Inhibitor]: ORAL, Species: RAT, Strain/Sex: F344/MALE, Target Tissue: Type of Lesion: LUNG: CARCINOMA, Dose [Carcinogen]: 1000 MG/KG BW DHPN TWICE, 1500 MG/KG BW EHEN TWICE, 75 MG/KG BW 3 TIMES ADMINISTERED OVER FIRST 3 WK, Promoter: NONE USED","1/14 (7%), 3/12 (25%), -257%, not significant"
same,"tumour outcome (control, treated, inhibition, significance)","Carcinogen: 2,2'-DIHYDROXY-DI-N-PROPYLNITROSAMINE, 53609-64-6, N-ETHYL-N-HYDROXYETHYLNITROSAMINE, 13147-25-6, 3,2'-DIMETHYL-4-AMINO-, Carcinogen: 2,2'-DIHYDROXY-DI-N-PROPYLNITROSAMINE, 53609-64-6, N-ETHYL-N-HYDROXYETHYLNITROSAMINE, 13147-25-6, 3,2'-DIMETHYL-4-AMINO-, Dose [Inhibitor]: 0, 2% IN DIET FOR 32 WK BEGINNING 1 WK POST CARCINOGEN TREATMENT (STUDY DURATION: 36 WK), Route [Inhibitor]: ORAL, Species: RAT, Strain/Sex: F344/MALE, Target Tissue: Type of Lesion: THYROID GLAND: ADENOMA, Dose [Carcinogen]: 1000 MG/KG BW DHPN TWICE, 1500 MG/KG BW EHEN TWICE, 75 MG/KG BW 3 TIMES ADMINISTERED OVER FIRST 3 WK, Promoter: NONE USED","3/14 (21%), 3/12 (25%), -19%, not significant"
same,"tumour outcome (control, treated, inhibition, significance)","Carcinogen: 2,2'-DIHYDROXY-DI-N-PROPYLNITROSAMINE, 53609-64-6, N-ETHYL-N-HYDROXYETHYLNITROSAMINE, 13147-25-6, 3,2'-DIMETHYL-4-AMINO-, Carcinogen: 2,2'-DIHYDROXY-DI-N-PROPYLNITROSAMINE, 53609-64-6, N-ETHYL-N-HYDROXYETHYLNITROSAMINE, 13147-25-6, 3,2'-DIMETHYL-4-AMINO-, Dose [Inhibitor]: 0, 2% IN DIET FOR 32 WK BEGINNING 1 WK POST CARCINOGEN TREATMENT (STUDY DURATION: 36 WK), Route [Inhibitor]: ORAL, Species: RAT, Strain/Sex: F344/MALE, Target Tissue: Type of Lesion: URINARY BLADDER: CARCINOMA, Dose [Carcinogen]: 1000 MG/KG BW DHPN TWICE, 1500 MG/KG BW EHEN TWICE, 75 MG/KG BW 3 TIMES ADMINISTERED OVER FIRST 3 WK, Promoter: NONE USED","1/14 (7%), 2/12 (17%), -143%, not significant"
same,outcome,"Carcinogen: 2,2'-DIHYDROXY-DI-N-PROPYLNITROSAMINE, 53609-64-6, N-ETHYL-N-HYDROXYETHYLNITROSAMINE, 13147-25-6, 3,2'-DIMETHYL-4-AMINO-, Carcinogen: 2,2'-DIHYDROXY-DI-N-PROPYLNITROSAMINE, 53609-64-6, N-ETHYL-N-HYDROXYETHYLNITROSAMINE, 13147-25-6, 3,2'-DIMETHYL-4-AMINO-, Dose [Inhibitor]: 0, 2% IN DIET FOR 32 WK BEGINNING 1 WK POST CARCINOGEN TREATMENT (STUDY DURATION: 36 WK), Route [Inhibitor]: ORAL, Species: RAT, Strain/Sex: F344/MALE, Target Tissue: Type of Lesion: URINARY BLADDER: PAPILLOMA, Dose [Carcinogen]: 1000 MG/KG BW DHPN TWICE, 1500 MG/KG BW EHEN TWICE, 75 MG/KG BW 3 TIMES ADMINISTERED OVER FIRST 3 WK, Promoter: NONE USED","0/14 (0%), 6/12 (50%), -100%, p<0.01"
same,"tumour outcome (control, treated, inhibition, significance)","Carcinogen: 2,2'-DIHYDROXY-DI-N-PROPYLNITROSAMINE, 53609-64-6, N-ETHYL-N-HYDROXYETHYLNITROSAMINE, 13147-25-6, 3,2'-DIMETHYL-4-AMINO-, Carcinogen: 2,2'-DIHYDROXY-DI-N-PROPYLNITROSAMINE, 53609-64-6, N-ETHYL-N-HYDROXYETHYLNITROSAMINE, 13147-25-6, 3,2'-DIMETHYL-4-AMINO-, Dose [Inhibitor]: 0, 2% IN DIET FOR 32 WK BEGINNING 1 WK POST CARCINOGEN TREATMENT (STUDY DURATION: 36 WK), Route [Inhibitor]: ORAL, Species: RAT, Strain/Sex: F344/RAT, Target Tissue: Type of Lesion: LARGE INTESTINE: ADENOMA, Dose [Carcinogen]: 1000 MG/KG BW DHPN TWICE, 1500 MG/KG BW EHEN TWICE, 75 MG/KG BW 3 TIMES ADMINISTERED OVER FIRST 3 WK, Promoter: NONE USED","7/14 (50%), 5/12 (42%), 16%, not significant"
same,"tumour outcome (control, treated, inhibition, significance)","Carcinogen: 7,12-DIMETHYLBENZ(A)ANTHRACENE, 57-97-6, Dose [Inhibitor]: 0, 1 MG IN 100 µL ACETONE IMMEDIATELY AFTER CARCINOGEN DOSE 2/WK FOR 30 WK (STUDY DURATION: 30 WK), Route [Inhibitor]: DERMAL, Species: MOUSE, Strain/Sex: SWISS/FEMALE, Target Tissue: Type of Lesion: SKIN: TUMOR, Dose [Carcinogen]: 5 UG IN 100 µL ACETONE 2/WK FOR 30 WK","8/8 (100%), 4/14 (26%), 74%, not calculated"
same,"tumour outcome (control, treated, inhibition, significance)","Carcinogen: 7,12-DIMETHYLBENZ(A)ANTHRACENE, 57-97-6, Dose [Inhibitor]: 0, 5 MG IN 100 µL ACETONE IMMEDIATELY AFTER CARCINOGEN DOSE 2/WK FOR 30 WK (STUDY DURATION: 30 WK), Route [Inhibitor]: DERMAL, Species: MOUSE, Strain/Sex: SWISS/FEMALE, Target Tissue: Type of Lesion: SKIN: TUMOR, Dose [Carcinogen]: 5 UG IN 100 µL ACETONE 2/WK FOR 30 WK","8/8 (100%), 1/14 (6.6%), 93%, not calculated"
same,"tumour outcome (control, treated, inhibition, significance)","Carcinogen: 7,12-DIMETHYLBENZ(A)ANTHRACENE, 57-97-6, Dose [Inhibitor]: 0, 100 UG IN 100 µL ACETONE IMMEDIATELY AFTER CARCINOGEN DOSE 2/WK FOR 30 WK (STUDY DURATION: 30 WK), Route [Inhibitor]: DERMAL, Species: MOUSE, Strain/Sex: SWISS/FEMALE, Target Tissue: Type of Lesion: SKIN: TUMOR, Dose [Carcinogen]: 5 UG IN 100 µL ACETONE 2/WK FOR 30 WK","8/8 (100%), 5/13 (40%), 60%, not calculated"
same,"tumour outcome (control, treated, inhibition, significance)","Carcinogen: 7,12-DIMETHYLBENZ[A]ANTHRACENE [57-97-6], Dose [Inhibitor]: 2% IN DIET FOR 35 WK BEGINNING 1 WK POST LAST CARCINOGEN DOSE (STUDY DURATION: 35 WK), Route [Inhibitor]: ORAL, Species: RAT, Strain/Sex: SPRAGUE-DAWLEY/FEMALE, Target Tissue: Type of Lesion: MAMMARY GLAND: CARCINOMA, Dose [Carcinogen]: 50 MG/KG BW ONCE (STUDY DURATION: 36 WK), Promoter: NONE","14/15 (93%), 14/15 (93%), 0%, not significant"
same,"tumour outcome (control, treated, inhibition, significance)","Carcinogen: 7,12-DIMETHYLBENZ[A]ANTHRACENE [57-97-6], Dose [Inhibitor]: 2% IN DIET FOR 35 WK BEGINNING 1 WK POST LAST CARCINOGEN DOSE (STUDY DURATION: 35 WK), Route [Inhibitor]: ORAL, Species: RAT, Strain/Sex: SPRAGUE-DAWLEY/FEMALE, Target Tissue: Type of Lesion: MAMMARY GLAND: FIBROADENOMA, Dose [Carcinogen]: 50 MG/KG BW ONCE (STUDY DURATION: 36 WK), Promoter: NONE","3/15 (20%), 4/15 (27%), -35%, not significant"
